Experimental data taken from patent US20090142411A1, “Composition and Device Comprising an Inorganic Component (Metal Compound) for Coagulation of Protein-Containing Fluids” (SMITH & NEPHEW, PLC, priority 2005, published 2009).

Experiments:
gelatine = assay: coagulation of gelatine solution; settings: 5 μl aliquot of 350 mg/ml solution, 100 μl gelatine solution 40 mg/ml in PBS, immediately
[1] = coagulation of chronic wound fluid
Protocol: (§1) The oxide powder was allowed to settle to the bottom of the vessel (0.5 ml capacity Eppendorf tube) and was left undisturbed for 2 hours. […] The vessel was left undisturbed for 24 h.

[2] = coagulation of whole human saliva; settings: 5 gi aliquot of 350 mg/ml solution in PBS pH 7.4, 100 μl whole human saliva, 30 minutes
Protocol: (§2) The vessel was left undisturbed for 30 minutes.

[3] = coagulation of heat-inactivated foetal calf serum
Protocol: as §1

[4] = coagulation of whole human blood; settings: 1-5 μl aliquots of 350 mg/ml solution, 100 μl whole human blood
Protocol: Examples 4-9 were repeated with 100 μl whole human blood in place of the bovine serum albumin solution.

bovine serum albumin = bovine serum albumin (Bos taurus, UniProt P02769); assay: coagulation of bovine serum albumin solution; settings: 10 mg powder in 100 μl bovine serum albumin 40 mg/ml in PBS pH 7.4, undisturbed 2 hours
Protocol: The oxide powder was allowed to settle to the bottom of the vessel (0.5 ml capacity Eppendorf tube) and was left undisturbed for 2 hours.
as §2, §2, §2, §2, §2
The vessel was left undisturbed for 24 h.

Chain of bovine serum albumin (P02769 25-607): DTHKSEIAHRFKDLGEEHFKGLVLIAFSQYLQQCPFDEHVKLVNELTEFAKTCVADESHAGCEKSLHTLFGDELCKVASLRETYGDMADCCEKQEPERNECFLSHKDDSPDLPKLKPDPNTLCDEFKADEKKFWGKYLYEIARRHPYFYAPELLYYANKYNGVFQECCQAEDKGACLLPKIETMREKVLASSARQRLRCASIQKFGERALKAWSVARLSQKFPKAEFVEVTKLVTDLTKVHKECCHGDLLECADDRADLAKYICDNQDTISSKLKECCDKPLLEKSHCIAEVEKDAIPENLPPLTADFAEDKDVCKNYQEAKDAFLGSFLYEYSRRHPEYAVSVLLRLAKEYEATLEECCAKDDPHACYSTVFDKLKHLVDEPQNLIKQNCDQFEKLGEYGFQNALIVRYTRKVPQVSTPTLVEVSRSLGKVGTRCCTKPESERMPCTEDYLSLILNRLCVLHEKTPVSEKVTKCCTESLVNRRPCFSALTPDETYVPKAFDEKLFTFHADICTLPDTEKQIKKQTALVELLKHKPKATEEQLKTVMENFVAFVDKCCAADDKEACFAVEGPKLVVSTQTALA

Row | Substance | coagulation / precipitate formation (gelatine) | coagulation, Examples 4-9 repeated ([1]; 1-5 μl aliquots of 350 mg/ml solution, 100 μl chronic wound fluid) | coagulation ([1]; 5 μl aliquot of 350 mg/ml solution, chronic wound fluid, 1.0 ml syringe, 24 h) | coagulation [2] | coagulation, Examples 4-9 repeated ([3]; 1-5 μl aliquots of 350 mg/ml solution, 100 μl heat-inactivated foetal calf serum) | coagulation ([3]; 5 μl aliquot of 350 mg/ml solution, heat-inactivated foetal calf serum, 1.0 ml syringe, 24 h) | coagulation, Examples 4-9 repeated [4] | coagulation ([1]; 10 mg powder in 100 μl chronic wound fluid, overnight) | coagulation ([1]; 10 mg powder in 100 μl chronic wound fluid, undisturbed 2 hours) | coagulation (bovine serum albumin) | coagulation ([3]; 10 mg powder in 100 μl heat-inactivated foetal calf serum, undisturbed 2 hours)
1 | gold (III) chloride | a fibrous precipitate was formed | The results were the same | the fluid coagulated | a lightly coagulated, opaque mass of several millimetres thickness was formed | The results were the same | the fluid coagulated | The results were the same |  |  |  | 
2 | gold (III) oxide [gold (III) oxide powder] |  |  |  |  |  |  |  | the entire fluid volume had coagulated | a coagulated, opaque mass of several millimetres thickness was formed | a coagulated, opaque mass of several millimetres thickness was formed | a coagulated, opaque mass of several millimetres thickness was formed
